Like-named read-outs stand apart in the source and are kept apart here.
Key:
Pyricularia oryzae = format: cell-based
Puccinia recondita = assay: CG1 Preventative control of brown rust on wheat caused by Puccinia recondita (Puccrt P1), greenhouse; format: in vivo; settings: 75 ppm spray, wheat seedlings, inoculated next day; % diseased leaf area; untreated control 90
Experimental: The Spray Solutions were Prepared in Several Steps:
The stock solution were prepared: a mixture of acetone and/or dimethylsulfoxide and the wetting agent/emulsifier Wettol, which is based on ethoxylated alkylphenoles, in a relation (volume) solvent-emulsifier of 99 to 1 was added to the initial weight of the compound to give a total of 5 ml. Water was then added to total volume of 100 ml. This stock solution was diluted with the described solvent-emulsifier-water mixture to the given concentration.
CG1 Preventative Control of Brown Rust on Wheat Caused by Puccinia recondita (Puccrt P1)
The first two developed leaves of pot-grown wheat seedling were sprayed to run-off with an aqueous suspension, containing the concentration of active ingredient or their mixture as described below. The next day the plants were inoculated with spores of Puccinia recondita. To ensure the success the artificial inoculation, the plants were transferred to a humid chamber without light and a relative humidity of 95 to 99% and 20 to 24° C. for 24 h. Then the trial plants were cultivated for 6 days in a greenhouse chamber at 20-24° C. and a relative humidity between 65 and 70%. The extent of fungal attack on the leaves was visually assessed as % diseased leaf area.

[1] = comparison CM1, 7 days after inoculation
[2] = comparison CM2, 7 days after inoculation

Row | Compound | Growth (%) at 8 ppm Pyrior (Pyricularia oryzae; [1]) | Disease (%) at 75 ppm Puccrt P1 (Puccinia recondita) | Growth (%) at 8 ppm Pyrior (Pyricularia oryzae; [2])
1 | OC(Cc1ccccc1Cl)(Cn1ncnc1S)C1(Cl)CC1 (stereo not drawn) [drawing 129, reference compound] | 41% | – | –
2 | OC(Cc1ccc(-c2ccc(Cl)cc2)cc1Cl)(Cn1cncn1)C1(Cl)CC1 (stereo not drawn) [I-3, 1-[2-chloro-4-(4-chlorophenyl)phenyl]-2-(1-chlorocyclopropyl)-3-(1,2,4-triazol-1-yl)propan-2-ol] | – | 20% | –
3 | OC(Cc1ccccc1Cl)(Cn1cncn1)C1(Cl)CC1 (stereo not drawn) [reference compound] | – | 50% | –
4 | OC(Cc1ccc(Oc2ccc(Cl)cc2)cc1Cl)(Cn1ncnc1S)C1(Cl)CC1 (stereo not drawn) [I-5] | 0% | – | 0%
5 | OC(Cc1ccc(Oc2ccc(Cl)cc2)cc1Cl)(Cn1cncn1)C1(Cl)CC1 (stereo not drawn) [I-4] | – | 20% | –
6 | OC(Cc1ccc(-c2ccc(Cl)cc2)cc1Cl)(Cn1ncnc1S)C1(Cl)CC1 (stereo not drawn) [I-6] | 0% | – | –
7 | OC(Cc1ccc(Oc2ccc(Cl)cc2)cc1Cl)(Cn1cncn1)C1CC1 (stereo not drawn) [I-7, 1-[2-Chloro-4-(4-chlorophenoxyl)phenyl]-2-cyclopropyl-3-(1,2,4-triazol-1-yl)propan-2-ol] | – | – | 0%
8 | OC(Cc1ccccc1Cl)(Cn1ncnc1S)C1(Cl)CC1 (stereo not drawn) [drawing 135, reference compound] | – | – | 41%
